Results published in a melting point compilation (Tetko et al.; mined from patent text by program, amines drawn as free bases though some values may be those of a salt).

Compound	melting point [°C]
C/C(=C\c1ccc(C=O)cc1)c1ccc2c(c1)C(C)(C)CCC2(C)C	140 to 141
Cc1cc(SC(C)C)c(NC(=O)CCCSc2nc3cccc(C(F)(F)F)c3o2)c(SC(C)C)n1	135 to 136
COCC(=O)N[C@@H]1c2cc(C#N)ccc2OC(C)(C)[C@H]1O (relative stereo)	162 to 163
Cc1ccc(N)c(-c2nc(C(F)(F)F)cs2)c1	100 to 103
COc1ccc2c(=O)c(-c3ccc(OCC4CO4)cc3)coc2c1 (centres undefined)	153 to 154
Nc1c(F)c(N2C[C@@H](N)[C@@H](n3ccnn3)C2)c(F)c2c1c(=O)c(C(=O)O)cn2C1CC1 (relative stereo)	275 to 277
COc1cccc2cc(C(=O)O)c(C(=O)O)cc12	210 to 212
CCOC(=O)c1c[nH]c2ccc(Cc3ccccc3)cc2c1=O	265 to 270
COc1c(C2CCN(CCCCOc3ccc(-c4ccc(C#N)cc4)cc3)CC2)ccc2ccccc12	142
CC(C)n1c(=O)n(CC2CO2)c2cc(-c3ncc(C(F)(F)F)cc3Cl)ccc21 (centres undefined)	110 to 111
COC(=O)CC(O)CC(=O)C=Cc1ccc(Cl)cc1Cl (centres undefined)	77 to 79
CCOC(=O)C(=CNC1CC1)C(=O)c1cc(F)c(Cl)nc1Cl	129 to 130
COc1ccc2c(N)c([N+](=O)[O-])sc2c1	> 250
N#Cc1cnc2cc(/C=C/c3ccncc3)sc2c1Nc1ccc(Oc2ccccc2)cc1	240 to 241
CCCN(CCC)C1Cc2cccc3[nH]c(=S)n(c23)C1 (centres undefined)	150 to 151
CCOC(=O)c1cc(-c2cn(Cc3ccccc3C#N)c(=O)n2-c2ccc(F)cc2)ccn1	164
CCOC(=O)c1ccc(OCCCCCCCCCCCOc2ccc(Cl)cc2)cc1	94 to 95
COc1ccc(CNc2n[nH]c(N=CN(C)C)c2C#N)cc1	147 to 148
O=C1CC(c2ccccc2)Oc2cc(OCCn3ccnc3)ccc21 (centres undefined)	139 to 140
COc1cc2nc(CN(C)C)[nH]c(=O)c2cc1OC	210 to 212
CCOC(=O)C(C(N)=O)c1cc(OC)c(OC)c(OC)c1 (centres undefined)	93
C=Cc1nc(C#N)c(C#N)[nH]1	168 to 170
COc1cc(C2OCCO2)cc(C#N)c1OC	76.5 to 77.5
CCCCCCCCCCCCCC(=O)OCC1OC(n2cc(F)c(=O)n(C(=O)c3ccc(C)cc3)c2=O)CC1OC(=O)CCCCCCCCCCCCC (centres undefined)	76 to 77
COc1c(C)cc(C)cc1C(N)=O	109 to 113

Compound	melting point [°C]
C[C@@](O)(CO)COc1ccc(Br)cc1	90
COc1nc2cc(Cl)c(F)c(CS(N)(=O)=O)c2nc1OC	227 to 228
Cc1cc(Cl)cc2c(-c3ccccc3)onc12	108 to 109
O=c1nc(-c2ccc3c(c2)OCO3)c2cc3c(cc2[nH]1)OCO3	> 300
CCn1cc(C(=O)O)c2nc3c(C)cccc3cc2c1=O	251 to 253
COC(=O)[C@@H]1C(=O)Nc2ccccc2C[C@H]1c1ccc2c(c1)OCO2 (racemic)	211 to 214
COC(=O)c1ccc2nc3scc(C)c3c(=O)n2c1	208 to 209
CCOC(=O)c1ccc2c(c1)C(C)(Cl)C(=S)N2 (centres undefined)	205 to 207
COc1ccc(CNc2cc3c(Nc4ccc(OCc5ccccn5)c(Cl)c4)ncnc3cn2)cc1	182 to 184
CCOC(=O)Cn1c(C)cc2c1CCCC2=O	101 to 104
COc1ccc(C=O)cc1OCC(F)F	66 to 68
O=C(C=Cc1ccc(O)cc1)N1CCc2c([nH]c3ccccc23)C1c1ccc2c(c1)CCO2 (centres undefined)	189
CC(=O)c1ccc(-n2c(C)ccc2-c2ccc(S(C)(=O)=O)cc2)cc1	179 to 180
OCC1(CO)CC=CC1	168 to 170
COc1ccc(Cl)cc1-c1c(N)c(=O)[nH]c2cc(Cl)c(Cl)cc12	> 300
CCOc1cc(CCCOc2c(C)cc(-c3noc(C4CC4)n3)cc2C)on1	70 to 71
COc1ccc(S(=O)(=O)Nc2ccccc2NC(=O)c2ccccc2)cc1	167 to 168
Cc1ccc2c(c1)C(c1ncnc3c1cnn3C1CCCC1)C(=O)N2 (centres undefined)	> 300
COc1cn(-c2ccc(N3CCC(F)(F)C3)cc2F)nc(-c2ccnn2-c2ccccc2)c1=O	195 to 197
CC1=C(C#N)C(c2cccc3ncc(-c4ccccc4)cc23)C(C(=O)OC(C)C)=C(N)N1 (centres undefined)	227 to 229
COc1cc(OCCCN(C)C)ccc1C(=O)NN	47 to 52
CN(CCO)C(=O)Nc1ccc([N+](=O)[O-])c(C(F)(F)F)c1	180 to 181
O=C1c2ccccc2C(=O)N1CCCN1CCC(c2noc3cc(F)ccc23)CC1	128 to 130
Cc1c(O)c(C)c2c(C)cn(C(=O)C(C)(C)C)c2c1C	152 to 153
OC(COc1ccccc1Cl)(Cn1cncn1)Cn1cncn1	95

Compound	melting point [°C]
Nc1ccc(C(=O)N2CCOCC2)cc1[N+](=O)[O-]	184 to 189
COc1ccc(C(=O)c2ccc(OCc3nc(-c4ccccc4)sc3C)cc2)c(OC(C)(C)C(=O)O)c1	145 to 147
CC1(c2cc(-c3cccc(CC4SC(N5CCCC5)=NC4=O)c3)ccc2O)CCCCC1 (centres undefined)	109 to 110
CN(C)C(=O)COC1c2ccccc2CCc2ccccc21	73 to 75
O=c1[nH]c2cc(-n3cnc4ccccc43)c([N+](=O)[O-])cc2[nH]c1=O	> 300
N#CC(=NO)c1cccc(Br)c1	91 to 93
CCCCCCCCCCCCCCCCCCOc1cc(OCCCOc2ccc(S(C)(=O)=O)cc2)cc(N(CC(=O)OC)CC(=O)OC)c1	70 to 72
N#Cc1ccc(-c2cccc(-c3cn4cc(C#N)ccc4n3)c2)cc1	290 to 292
O=C(Sc1ccccn1)c1c(F)c(F)c(F)c(F)c1F	51
N#Cc1ccc(-c2ccc(-c3ccn([C@H](CC(=O)O)C(=O)N[C@H](CO)Cc4ccccc4)c3)cc2)cc1	189 to 192
O=C1NCCCN2c3ccccc3CC12 (centres undefined)	159
O=C(CCCN1CCC(NC(=O)c2ccccc2)CC1)c1ccc(Cl)cc1	243 to 244
NC1=NC(c2ccncc2)(c2cccc(-c3cccnc3F)c2)C2=NCCCN12 (centres undefined)	125 to 131
O=Cc1cccc([N+]([O-])=Cc2cccc([N+](=O)[O-])c2)c1	195 to 197
O=C1CC2Sc3nc(=O)c4ccccc4n3C2(c2ccc(Cl)cc2)O1 (centres undefined)	215 to 220
CC(C)n1nc(-c2nc(C3=CCN(C)CC3)c(N)nc2-c2ccccc2)ccc1=O	209 to 211
Cc1noc(C)c1S(=O)(=O)Nc1ccc(Cl)cc1	144
C1=C(c2c[nH]c3ccccc23)CCN(CC2CCc3ccccc32)C1 (centres undefined)	168 to 170
C(/CN1CCOCC1)=C1/CCCc2c1cnn2-c1ccccc1	114 to 116
CCn1nc2c(N)nc3ccccc3c2c1CC1(O)CCOCC1	253 to 255
O=c1[nH]c2ncc(-c3ccc(O)cc3)nc2n1CC1CCCO1 (centres undefined)	256 to 258
COc1ccc(-c2cc(C=CC(=O)O)cs2)cc1C(C)(C)C	197 to 198
O=C(c1ccc(C(F)(F)F)cc1S(=O)c1ccc(Cl)cc1)c1cnoc1C1CC1 (centres undefined)	151
O=C(O)COc1cccc2c1CCC(Cc1nc(C(c3ccccc3)c3ccccc3)co1)C2 (centres undefined)	130 to 132
COc1c(-c2ccc(O)c(O)c2)oc2cc(O)c(CC=C(C)CCC=C(C)C)c(O)c2c1=O	98 to 99

Compound	melting point [°C]
COc1cccc2c1C(CN1CC=C(c3c[nH]c4cc(Cl)ccc34)CC1)CC2 (centres undefined)	177 to 178
Cc1nc(-c2ccc(Cl)cc2Cl)sc1C(=O)NCCCCN1CCC(c2ccc3c(c2OCCO)CCCC3)CC1	122 to 124
O=C(/C=C/C=C/c1ccc(Br)cc1)NCCCC(=O)NO	173 to 175
Fc1cc(CC2(Cc3ccnc(F)c3)c3ccccc3-c3cccnc32)ccn1	128 to 130
Cc1cc(C)cc(Oc2c(C(C)C)c(=O)[nH]c(=O)n2CCC2C=CCC2)c1 (centres undefined)	148 to 149
O=C(c1cccc(-c2cc3ccccc3n2S(=O)(=O)c2ccccc2)c1)c1cc2ccccc2n1S(=O)(=O)c1ccccc1	189 to 190
OC1CSC(Oc2cc(F)ccc2-c2ccncc2)C(O)C1O (centres undefined)	209
Clc1ccc(C=Cc2ccccc2)cc1Cl	87.7
CCCCCCCNC(=O)c1ccccc1CN1C(=O)C2(COc3cc4c(cc32)CCO4)c2ccccc21 (centres undefined)	196 to 198
CCN(CC)c1ccc(C(F)(F)F)cc1NC(=O)c1ccncc1	78 to 80
OC(CCCl)COc1ccccc1 (centres undefined)	52 to 54
NS(=O)(=O)c1ccc(-c2cc(-c3nc(-c4ccc(C(F)(F)F)cc4F)cc(C(F)(F)F)n3)ccn2)s1	228
COc1cc(OC)nc(Oc2cccc(Cl)c2C(=O)O)n1	123 to 126
Nc1cc(Oc2ccc(NC(=O)Nc3ccc(Cl)c(C(F)(F)F)c3)cc2)ncn1	197 to 198
COc1ccc(C(C#N)=Cc2ccc(OC)c(OC3CCCC3)c2)cc1	102 to 105
COC(=O)c1ccc(-c2ncccc2S(=O)(=O)Nc2ncc(C)nc2OC)cc1	144 to 146
O=C(OCc1ccccc1)N1CCC(O)(c2ccc(C(F)(F)F)cc2)CC1	102
CN(C)C(=O)c1cc(-c2ccc(-c3ccco3)cc2)n(-c2ccc(S(C)(=O)=O)c(F)c2)n1	167 to 168
CCOC(=O)C1CCc2ccc(N)c(C)c2O1 (centres undefined)	82 to 85
O=S(=O)(Nc1cccc2cc(C3=NCC(CCO)S3)[nH]c12)c1cccs1 (centres undefined)	156 to 158
COCCOCCOCC(=O)Nc1cc(C(=O)O)cc([N+](=O)[O-])c1	136 to 137
CC(=O)NC1CCN(c2ncc3ncnc(Nc4ccc(F)c(Cl)c4)c3n2)CC1	263 to 265
CCn1nccc1NC(=O)c1cc(C(=O)OC)c(O)c2ncc(Cc3ccc(F)cc3)cc12	219 to 220
CC1(C)CC(OC(=O)Nc2ccccc2)CC(C)(C)N1OC(=O)Nc1ccccc1	188 to 190
